From patent publication US7232570B2, “ERAAP modulators regulate immune responses” (Regents of the University of California, priority 2002, dated 2007)
Blank lines part the entries; values can stand above or below the compound they belong to.

Columns and labels:
[1] = tested on: antigen presenting cells (APC); test: APC assays with peripheral blood leukocytes from aminothiol-treated rats; format: in vivo, Sprague-Dawley rats; settings: peripheral blood leukocytes of treated rats as APC for T cells specific for K^b or D^b presented peptides
[2] = molecular target: T1, predominant aminopeptidase activity present in the ER (ERAAP) (Mus musculus, UniProt Q9EQH2); test: Aminopeptidase activity of solubilized microsomes, colorimetric substrate leucine-p-nitroanilide; format: biochemical, mice; settings: ion exchange chromatography of solubilized microsomes from mouse liver and spleen
T1 construct: Microsomes from liver and spleens of mice were solubilized in detergent; from tissue; host or cells: mouse liver and spleen microsomes
T1 sequence (Q9EQH2 1-930): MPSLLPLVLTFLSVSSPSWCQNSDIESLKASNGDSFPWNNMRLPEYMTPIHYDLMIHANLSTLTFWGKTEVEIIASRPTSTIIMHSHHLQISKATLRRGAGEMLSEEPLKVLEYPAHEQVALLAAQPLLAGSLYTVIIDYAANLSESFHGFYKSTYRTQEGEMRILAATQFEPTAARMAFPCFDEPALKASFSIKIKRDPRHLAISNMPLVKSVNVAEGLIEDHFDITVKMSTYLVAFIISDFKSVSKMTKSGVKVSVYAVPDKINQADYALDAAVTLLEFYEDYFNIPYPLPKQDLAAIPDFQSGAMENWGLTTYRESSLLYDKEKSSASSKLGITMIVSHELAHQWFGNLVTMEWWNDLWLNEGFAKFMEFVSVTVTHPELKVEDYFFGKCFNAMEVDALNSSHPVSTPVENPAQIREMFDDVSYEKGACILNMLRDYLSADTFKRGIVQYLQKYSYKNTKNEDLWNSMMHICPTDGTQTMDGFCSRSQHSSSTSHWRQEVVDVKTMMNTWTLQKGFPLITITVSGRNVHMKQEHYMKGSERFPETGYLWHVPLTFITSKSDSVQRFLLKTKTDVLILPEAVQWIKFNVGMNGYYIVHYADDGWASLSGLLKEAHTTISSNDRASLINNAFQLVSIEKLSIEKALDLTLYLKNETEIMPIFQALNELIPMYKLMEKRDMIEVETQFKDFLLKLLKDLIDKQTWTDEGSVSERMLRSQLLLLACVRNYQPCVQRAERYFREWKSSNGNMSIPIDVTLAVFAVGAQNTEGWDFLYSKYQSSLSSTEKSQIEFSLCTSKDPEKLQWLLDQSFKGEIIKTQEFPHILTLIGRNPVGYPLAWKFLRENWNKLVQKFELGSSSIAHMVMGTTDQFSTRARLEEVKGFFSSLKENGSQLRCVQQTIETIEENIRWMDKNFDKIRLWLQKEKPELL
From the text: To identify this protease, we biochemically purified the predominant aminopeptidase activity present in the ER. Microsomes from liver and spleens of mice were solubilized in detergent and the aminopeptidase activity was monitored by the colorimetric substrate leucine-p-nitroanilide (9). […] This activity was precipitated from solubilized microsomes by ammonium sulfate, resolublized and fractionated by size exclusion, ion exchange and hydrophobic interaction chromatographies. The highly enriched fractions from the final purification step contained a major band of approximately 100 kD on a coommassie blue stained SDS-PAGE gel. This band was subjected to in-gel trypsin digestion and the peptides were analyzed by MALDI-TOF mass spectrometry; the resulting tryptic peptide fingerprint was used to search the NCBI database (10). In two independent experiments 25 masses matched the predicted output of trypsin digested murine adipocyte-derived leucine aminopeptidase (Genbank Accession # AF227511). This assignment was further confirmed with the amino acid sequences of four peptides determined by high energy CID MS-MS analysis (11). This 930 amino acid murine aminopeptidase and its human and rat homologues are known by a variety of different names (12). […]

Sprague-Dawley rats = test: Phenotypic and functional indicia of immunosuppression in treated rats; format: in vivo
human source ERAAP = human source ERAAP (Homo sapiens, UniProt Q9NZ08); test: ERAAP modulation/selectivity screen against a panel of other aminopeptidases; format: biochemical; settings: preferential inhibition of ERAAP compared with a panel of other aminopeptidases
From the text: The targeted ERAAP is a well-known, naturally-occurring aminopeptidase, which has been biochemically characterized and cloned in a wide variety of animal species, including mice, rats and humans. […] Note that the same enzyme has been called “A-LAP” (adipocyte-derived leucine aminopeptidase) by others (e.g. Hattori et al., supra).
Protocols for delivering the inhibitor and effective dosages are known in the art and/or readily determined empirically by those skilled in the art guided by the selected inhibitor and the present disclosure. […] For example, the well-characterized structural interaction between aminothiol inhibitors of aminopeptidases (e.g. Bienvenue et al., J Inorgan Biochem 2000, 78, 43-54) were exploited to select ERAAP selective aminothiol-type inhibitors. In this manner, we screened panels of compounds and identified a number of ERAAP-selective aminothiol inhibitors, including leucine thiol and lysinethiol. ERAAP modulation assays may be performed by any convenient protocol, including those described by us in Serwold et al. (2001, supra), those of Hattori et al. (2000, supra), etc. […] Alternative aminopeptidase inhibitor pharmacophores for ERAAP selectivity and method compatibility screens include L-bis (1-thio-2-amino-4-methylpentane) dihydrochloride (TAMP) and L-bis (1-thio-2-amino-3-phenylpropane) dihydrochloride (TAPP) (see, e.g. Weiss et al., Res Comm Chem Path Pharmacol 1988, 62, 113-2) and alpha-thiolbestatins (e.g. Ocain et al., J Med Chem 1988 November;31(11):2193-9).

ERAAP = ERAAP expression in cultured fibroblasts treated with interferon gamma; format: cell-based
Procedure: MHC I molecules are expressed by virtually all tissues. To determine whether ERAAP expression correlated with that of MHC I, seven different mouse tissues were analyzed by western blot for expression of ERAAP, MHC I and the housekeeping proteins actin and gp96 as controls. ERAAP was detected in all tissues analyzed but its expression was highest in the liver, lung, spleen and thymus, the same tissues which also expressed the highest levels of MHC I molecules. Furthermore, the expression of ERAAP was increased approximately 10-fold by treatment of cultured fibroblasts with the inflammatory cytokine interferon gamma, which also upregulates many other key components in the antigen processing pathway (17).

Sequence of human source ERAAP (Q9NZ08 whole entry): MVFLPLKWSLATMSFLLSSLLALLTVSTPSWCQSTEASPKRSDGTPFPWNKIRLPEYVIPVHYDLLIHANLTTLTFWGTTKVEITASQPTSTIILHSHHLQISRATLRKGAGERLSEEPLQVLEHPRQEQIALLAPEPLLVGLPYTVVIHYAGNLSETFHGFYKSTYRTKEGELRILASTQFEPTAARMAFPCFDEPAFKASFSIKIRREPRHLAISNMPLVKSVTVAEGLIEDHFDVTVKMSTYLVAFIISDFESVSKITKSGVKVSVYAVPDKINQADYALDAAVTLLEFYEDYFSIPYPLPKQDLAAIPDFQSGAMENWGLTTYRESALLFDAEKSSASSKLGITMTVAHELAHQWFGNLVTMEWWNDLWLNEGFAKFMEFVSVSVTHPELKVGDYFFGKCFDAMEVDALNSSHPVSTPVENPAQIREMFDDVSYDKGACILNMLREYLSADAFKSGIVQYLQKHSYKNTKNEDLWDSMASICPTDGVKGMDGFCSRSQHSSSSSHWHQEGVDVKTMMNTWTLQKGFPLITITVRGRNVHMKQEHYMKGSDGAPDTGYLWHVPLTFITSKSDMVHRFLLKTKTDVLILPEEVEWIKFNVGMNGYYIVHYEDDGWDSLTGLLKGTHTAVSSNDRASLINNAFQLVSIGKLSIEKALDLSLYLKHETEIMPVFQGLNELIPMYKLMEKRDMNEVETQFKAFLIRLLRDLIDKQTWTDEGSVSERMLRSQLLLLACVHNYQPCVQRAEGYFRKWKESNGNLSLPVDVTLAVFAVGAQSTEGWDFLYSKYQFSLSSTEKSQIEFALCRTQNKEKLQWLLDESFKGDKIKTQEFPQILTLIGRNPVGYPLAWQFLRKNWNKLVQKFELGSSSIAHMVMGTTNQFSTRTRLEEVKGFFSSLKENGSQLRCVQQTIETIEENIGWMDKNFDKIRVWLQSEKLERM

Compound: CC(C)C[C@H](N)CS [leucinethiol]
APC function [1]: pronounced inhibition | predominant aminopeptidase activity peak [2]: blocked | spleen and thymus volume (Sprague-Dawley rats): reduced | graft-host response (Sprague-Dawley rats; e.g. skin graft assays): reduced | ERAAP selectivity (human source ERAAP): ERAAP-selective

Compound: interferon gamma: inflammatory cytokine
increase of ERAAP expression (ERAAP): approximately 10 fold

ERAAP selectivity (human source ERAAP): ERAAP-selective
Compound: NCCCC[C@H](N)CS [lysinethiol]

ERAAP selectivity (human source ERAAP): ERAAP-selective
Compound: CC[C@H](C)[C@H](N)CS [isoleucinethiol]
